Assay results from paper PMC3488358 (Chemical biology & drug design, 2013).
“And” between values parts separate entries of the source, which are not always exact repeats. Equal values may be shown once. Read-outs that look alike come from different tables or passages of the source.

Experiments:
[1] = system: Methicillin-resistant S. aureus ATCC 33591 (MRSA); experiment: Antibacterial susceptibility testing; assay type: cell-based, Staphylococcus aureus
[2] = system: Cryptococcus neoformans ATCC 90113; experiment: In vitro antifungal activity; assay type: cell-based
HIV-1NL4.3 virus = experiment: Anti-HIV activity, p24 antigen capture ELISA in CEM-GFP cells; assay type: cell-based; settings: CEM-GFP cells infected with HIV-1NL4.3, non-cytotoxic concentration
[3] = system: Staphylococcus aureus ATCC 29213; experiment: Antibacterial susceptibility testing; assay type: cell-based
[4] = system: Aspergillus fumigatus ATCC 204305; experiment: In vitro antifungal activity; assay type: cell-based
[5] = system: Pseudomonas aeruginosa ATCC 27853; experiment: Antibacterial susceptibility testing; assay type: cell-based
P. falciparum (W2 Clone) = assay type: cell-based, Plasmodium falciparum; settings: read-out: P. falciparum (W2 Clone) IC50; chloroquine-resistant W2 clone
P. falciparum (D6 Clone) = assay type: cell-based, Plasmodium falciparum; settings: read-out: P. falciparum (D6 Clone) IC50; chloroquine-sensitive D6 clone
[6] = system: Candida albicans ATCC 90028; experiment: In vitro antifungal activity; assay type: cell-based
[7] = system: Candida glabrata ATCC 90030; experiment: In vitro antifungal activity; assay type: cell-based
[8] = system: Leishmania donovani promastigotes; experiment: In vitro antileishmanial activity, Alamar Blue assay; assay type: cell-based; settings: for IC50: read-out: L. donovani IC50; for IC90: read-out: L. donovani IC90
Candida krusei ATCC 6258 = experiment: In vitro antifungal activity; assay type: cell-based
[9] = system: Mycobacterium intracellulare ATCC 23068; experiment: Antibacterial susceptibility testing; assay type: cell-based
[10] = system: Escherichia coli ATCC 35218; experiment: Antibacterial susceptibility testing; assay type: cell-based

Question: Which results are given for `CCCCC[C@@H]1C[C@@H]2CC[C@@H]3C[C@H](C)NC(=N1)N32` (racemic) [17l, batzelladine K]?
Answer: MRSA MBC [1]: - (“-” = Not active at the highest test concentration of 20 μg/mL); MRSA MIC [1]: 80.3 µM; IC50 ([1]; read-out: MRSA IC50): 56 µM and 56.1 µM; Cryptococcus neoformans MFC [2]: - (“-” = No activity at the highest test concentration of 20 μg/mL); Cryptococcus neoformans MIC [2]: - (“-” = No activity at the highest test concentration of 20 μg/mL); IC50 ([2]; read-out: Cryptococcus neoformans IC50): 76.2 µM; anti-HIV activity (inhibition of HIV-1) (HIV-1NL4.3 virus): no anti-HIV activity; S. aureus MBC [3]: - (“-” = Not active at the highest test concentration of 20 μg/mL); S. aureus MIC [3]: 80.32 µM; IC50 ([3]; read-out: S. aureus IC50): 64.1 µM; Aspergillus fumigatus MFC [4]: - (“-” = No activity at the highest test concentration of 20 μg/mL); Aspergillus fumigatus MIC [4]: - (“-” = No activity at the highest test concentration of 20 μg/mL); P. aeruginosa IC50 [5]: - (“-” = Not active at the highest test concentration of 20 μg/mL); P. aeruginosa MBC [5]: - (“-” = Not active at the highest test concentration of 20 μg/mL); P. aeruginosa MIC [5]: - (“-” = Not active at the highest test concentration of 20 μg/mL); IC50 (P. falciparum (W2 Clone)): 13.7 µM; IC50 (P. falciparum (D6 Clone)): 14.8 µM; Candida albicans MFC [6]: - (“-” = No activity at the highest test concentration of 20 μg/mL); Candida albicans MIC [6]: - (“-” = No activity at the highest test concentration of 20 μg/mL); Candida glabrata MFC [7]: - (“-” = No activity at the highest test concentration of 20 μg/mL); Candida glabrata MIC [7]: - (“-” = No activity at the highest test concentration of 20 μg/mL); IC50 ([8]; promastigotes): 48.2 µM; IC90 ([8]; promastigotes): 124 µM; Candida krusei MFC (Candida krusei ATCC 6258): - (“-” = No activity at the highest test concentration of 20 μg/mL); Candida krusei MIC (Candida krusei ATCC 6258): - (“-” = No activity at the highest test concentration of 20 μg/mL); M. intracellulare MBC [9]: - (“-” = Not active at the highest test concentration of 20 μg/mL); M. intracellulare MIC [9]: - (“-” = Not active at the highest test concentration of 20 μg/mL); IC50 ([9]; read-out: M. intracellulare IC50): 79.5 µM; E.coli IC50 [10]: - (“-” = Not active at the highest test concentration of 20 μg/mL); E.coli MBC [10]: - (“-” = Not active at the highest test concentration of 20 μg/mL); E.coli MIC [10]: - (“-” = Not active at the highest test concentration of 20 μg/mL)

Question: With `C[C@@H]1[C@H](O)[C@@H](C)/C=C/C=C/C=C/C=C/C=C/C=C/C=C/[C@H](O[C@@H]2O[C@H](C)[C@@H](O)[C@H](N)[C@@H]2O)C[C@@H]2O[C@](O)(C[C@@H](O)C[C@@H](O)[C@H](O)CC[C@@H](O)C[C@@H](O)CC(=O)O[C@H]1C)C[C@H](O)[C@H]2C(=O)O` [Amphotericin B] as the compound, how does the IC50 ([8]; Leishmania donovani) read?
Answer: 0.173 µM

Question: And the IC90 ([8]; Leishmania donovani)?
Answer: 0.358 µM

Question: How did the IC50 ([8]; Leishmania donovani) turn out when `N=C(N)c1ccc(OCCCCCOc2ccc(C(=N)N)cc2)cc1` [Pentamidine] was run?
Answer: 2.94 µM

Question: And the IC90 ([8]; Leishmania donovani)?
Answer: 5.88 µM
